Measurements as given in patent US20250313535A1, “ALPHA 4 BETA 7 INTEGRIN MODULATORS AND USES THEREOF” (DICE MOLECULES SV, INC., priority 2022, published 2025).
Where two headings read alike, the source gives them in different places.

Experiments:
Assay type in all cases: cell-based
[1] = target: T1, α4β7 integrin (Homo sapiens (Human), UniProt P13612+P26010); assay: Integrin Adhesion Assay: Protocol 1 (MAdCAM-coated plate, RPMI-8866 cells, CellTiter GLO readout)
Method in brief: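 RPMI-8866 cells (2×10^6 per mL) added with compounds (1% DMSO) to MAdCAM-coated wells blocked in HEPES/NaCl buffer with 1 mM MnCl2, 0.1 mM CaCl2, 1% BSA; 1 h at 37° C, 5% CO2. After four washes, bound cells read by CellTiter GLO luminescence; % inhibition vs DMSO and control wells, 4-parameter fit.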

[2] = target: α4β1 integrin (Homo sapiens (Human), UniProt P05556+P13612); assay: Integrin Adhesion Assay: Protocol 5 (VCAM-coated plate, RPMI-8866 cells with stable LOF mutation of the ITGB7 gene)
Method in brief: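 RPMI-8866 B cells with CRISPR/Cas9 ITGB7 knockout (clonal, verified by flow cytometry) adhered to VCAM-coated wells for 1 h at 37° C in HEPES/NaCl buffer with 1 mM MnCl2, 0.1 mM CaCl2, 1% BSA, 1% DMSO. Bound cells quantified by CellTiter-Glo luminescence after washing; % inhibition versus DMSO and control, 4-parameter fit.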

[3] = target: T1, α4β7 integrin; assay: Integrin Adhesion Assay: Protocol 4 (MAdCAM-coated plate, RPMI-8866 cells with stable LOF mutation of the ITGB1 gene)
Method in brief: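 RPMI-8866 cells with CRISPR/Cas9 knockout of ITGB1 (2×10^6/mL) were added to MAdCAM-coated wells with compound (1% DMSO) in HEPES/NaCl buffer with 1 mM MnCl2, 0.1 mM CaCl2 and 1% BSA, then incubated 1 h at 37 °C. After four washes, adherent cells were quantified by CellTiter-Glo luminescence. Percent inhibition versus DMSO and control compound was fitted to 4-parameter curves.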

[4] = RPMI-8866 cells with stable LOF mutation of the ITGB7 gene, read-out: Mean IC50 α4β1 KO^b
[5] = RPMI-8866 cells with stable LOF mutation of the ITGB1 gene, read-out: Mean IC50 α4β7 KO^a
[6] = Protocol 5, RPMI-8866 cells with LOF mutation of ITGB7, VCAM, read-out: Mean IC50 α4β1 KO
[7] = Protocol 4, RPMI-8866 cells with LOF mutation of ITGB1, MAdCAM, read-out: Mean IC50 α4β7 KO

α4β1 integrin, sequence (P13612 34-1032): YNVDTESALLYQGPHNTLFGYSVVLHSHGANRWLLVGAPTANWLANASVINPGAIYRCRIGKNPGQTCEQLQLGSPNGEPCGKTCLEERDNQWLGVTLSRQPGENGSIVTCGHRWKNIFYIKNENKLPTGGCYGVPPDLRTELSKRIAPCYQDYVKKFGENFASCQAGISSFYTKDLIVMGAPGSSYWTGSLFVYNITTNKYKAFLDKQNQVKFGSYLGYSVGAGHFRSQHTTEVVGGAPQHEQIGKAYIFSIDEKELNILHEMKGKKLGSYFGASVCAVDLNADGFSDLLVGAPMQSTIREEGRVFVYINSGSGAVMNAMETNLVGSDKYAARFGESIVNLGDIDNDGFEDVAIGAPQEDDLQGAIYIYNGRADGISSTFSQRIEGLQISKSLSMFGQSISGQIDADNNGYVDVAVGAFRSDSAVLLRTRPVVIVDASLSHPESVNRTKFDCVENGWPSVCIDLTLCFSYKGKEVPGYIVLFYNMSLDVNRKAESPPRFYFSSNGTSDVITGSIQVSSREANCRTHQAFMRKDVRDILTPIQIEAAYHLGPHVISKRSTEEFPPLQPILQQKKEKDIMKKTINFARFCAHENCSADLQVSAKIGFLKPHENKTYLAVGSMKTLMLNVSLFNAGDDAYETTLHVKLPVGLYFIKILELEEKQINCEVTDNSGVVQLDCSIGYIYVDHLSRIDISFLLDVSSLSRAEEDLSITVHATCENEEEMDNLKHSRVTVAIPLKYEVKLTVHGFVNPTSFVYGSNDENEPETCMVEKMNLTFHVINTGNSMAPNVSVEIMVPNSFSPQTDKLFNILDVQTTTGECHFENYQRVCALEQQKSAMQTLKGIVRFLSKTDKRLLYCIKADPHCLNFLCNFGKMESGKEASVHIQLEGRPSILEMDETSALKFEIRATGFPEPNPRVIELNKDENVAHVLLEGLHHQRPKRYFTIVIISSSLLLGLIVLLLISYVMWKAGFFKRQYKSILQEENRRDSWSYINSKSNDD
α4β1 integrin, sequence (P05556 21-798): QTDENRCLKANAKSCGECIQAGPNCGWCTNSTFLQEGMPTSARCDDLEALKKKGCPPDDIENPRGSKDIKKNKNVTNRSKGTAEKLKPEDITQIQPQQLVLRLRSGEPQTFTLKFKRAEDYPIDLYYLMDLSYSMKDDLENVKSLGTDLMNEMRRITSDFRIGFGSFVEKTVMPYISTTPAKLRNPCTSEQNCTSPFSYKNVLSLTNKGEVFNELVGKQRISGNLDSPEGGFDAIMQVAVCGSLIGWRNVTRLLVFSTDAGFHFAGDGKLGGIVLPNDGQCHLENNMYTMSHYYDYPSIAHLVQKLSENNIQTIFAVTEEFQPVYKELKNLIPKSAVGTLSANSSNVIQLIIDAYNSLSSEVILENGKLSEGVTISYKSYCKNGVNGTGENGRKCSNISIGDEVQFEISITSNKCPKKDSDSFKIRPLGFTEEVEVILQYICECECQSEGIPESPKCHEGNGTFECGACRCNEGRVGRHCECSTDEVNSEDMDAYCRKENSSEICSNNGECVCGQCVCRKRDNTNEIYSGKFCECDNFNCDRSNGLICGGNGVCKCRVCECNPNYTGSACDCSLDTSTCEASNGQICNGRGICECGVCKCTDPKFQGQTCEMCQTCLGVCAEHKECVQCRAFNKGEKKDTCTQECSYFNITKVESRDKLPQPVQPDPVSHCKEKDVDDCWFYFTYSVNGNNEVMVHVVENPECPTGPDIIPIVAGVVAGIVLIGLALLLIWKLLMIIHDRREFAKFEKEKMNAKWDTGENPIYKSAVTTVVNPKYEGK
T1 sequence (P13612 34-1032): as the sequence (P13612 34-1032) above
T1 sequence (P26010 20-798): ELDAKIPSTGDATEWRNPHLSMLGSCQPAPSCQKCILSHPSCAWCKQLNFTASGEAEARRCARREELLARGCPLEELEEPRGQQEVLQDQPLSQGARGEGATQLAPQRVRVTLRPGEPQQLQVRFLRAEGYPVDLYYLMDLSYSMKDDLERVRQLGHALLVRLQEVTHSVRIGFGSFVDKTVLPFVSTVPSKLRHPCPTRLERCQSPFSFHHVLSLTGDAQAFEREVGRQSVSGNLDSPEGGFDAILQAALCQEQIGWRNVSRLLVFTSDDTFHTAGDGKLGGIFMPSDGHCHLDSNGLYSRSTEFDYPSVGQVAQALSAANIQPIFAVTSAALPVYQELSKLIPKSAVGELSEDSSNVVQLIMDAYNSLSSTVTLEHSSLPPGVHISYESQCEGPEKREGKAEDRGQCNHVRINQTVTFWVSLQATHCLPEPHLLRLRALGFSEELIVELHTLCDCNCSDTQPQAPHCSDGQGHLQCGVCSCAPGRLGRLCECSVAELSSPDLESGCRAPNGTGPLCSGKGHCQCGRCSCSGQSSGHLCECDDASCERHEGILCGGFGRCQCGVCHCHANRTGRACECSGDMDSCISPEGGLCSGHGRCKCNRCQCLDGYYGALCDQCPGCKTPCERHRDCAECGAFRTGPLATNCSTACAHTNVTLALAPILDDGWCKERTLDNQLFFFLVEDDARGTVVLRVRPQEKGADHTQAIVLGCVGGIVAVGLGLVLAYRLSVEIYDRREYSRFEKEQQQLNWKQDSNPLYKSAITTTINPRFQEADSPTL

Row | IC50 [1] [nM] | IC50 [2, 4] [nM] | IC50 [3, 5] [nM] | IC50 ([1]; protocol not given) [nM] | IC50 [2, 6] [nM] | IC50 [3, 7] [nM] | Compound
1 | 100 to 1000 | > 1000 | 100 to 1000 |  |  |  | Cn1c(=O)c(-c2cccc3c(C[C@H](NC(=O)c4c(F)cc(N5CCCCC5)cc4F)C(=O)O)cccc23)c(C(F)(F)F)c2ccccc21 [Compound 354]
2 | 10 to 100 | > 1000 | 10 to 100 |  |  |  | Cc1cccc(F)c1C(=O)N[C@@H](Cc1cccc2c(-c3c(C(F)(F)F)c4ccccc4n(C)c3=O)cccc12)C(=O)O [Compound 355]
3 | 100 to 1000 | > 1000 | 100 to 1000 |  |  |  | Cn1c(=O)c(-c2cccc3c(C[C@H](NC(=O)c4c(F)cc(C5CCOCC5)cc4F)C(=O)O)cccc23)c(C(F)(F)F)c2ccccc21 [Compound 373]
4 | 10 to 100 | > 1000 | 10 to 100 |  |  |  | Cn1c(=O)c(-c2cccc3c(C[C@H](NC(=O)[C@]4(C)CC[C@@H](N5CCS(=O)(=O)CC5)CC4)C(=O)O)cccc23)c(C(F)(F)F)c2ccccc21 [Compound 403]
5 | 100 to 1000 | > 1000 | 100 to 1000 |  |  |  | CN(C)c1ccc2c(c1)c(C(F)(F)F)c(-c1cccc3c(C[C@H](NC(=O)[C@]4(C)CC[C@@H](N5CCC(F)(F)CC5)CC4)C(=O)O)cccc13)c(=O)n2C [Compound 411]
6 | 10 to 100 | > 1000 | 100 to 1000 |  |  |  | Cn1c(=O)c(-c2cccc3c(C[C@H](NC(=O)[C@]4(C(F)(F)F)CC[C@@H](N5CCOC[C@@H]5C(F)(F)F)CC4)C(=O)O)cccc23)c(C(F)(F)F)c2ccccc21 [Compound 422]
7 | < 10 | > 1000 | < 10 |  |  |  | CN(C)Cc1cccc2c(-c3cccc4c(C[C@H](NC(=O)c5c(F)cc(N6CCOC[C@@H]6C(F)(F)F)cc5CN5CCCC5)C(=O)O)cccc34)nccc12 [Compound 433]
8 | 10 to 100 | > 1000 | 10 to 100 |  |  |  | Cc1c(F)ccc(F)c1C(=O)N[C@@H](Cc1cccc2c(-c3c(C(F)(F)F)c4ccccc4n(C)c3=O)cccc12)C(=O)O [Compound 444]
9 | < 10 | 100 to 1000 | < 10 |  |  |  | CCOCc1cc(OC)c(-c2cccc3c(C[C@H](NC(=O)c4c(C)cccc4F)C(=O)O)cccc23)c(OC)c1 [Compound 448]
10 | 100 to 1000 | > 1000 | 100 to 1000 |  |  |  | Cc1cccc(F)c1C(=O)N[C@@H](Cc1cccc2c(-c3c(C(F)(F)F)c4cc(N(C)C)ccc4n(C)c3=O)cccc12)C(=O)O [Compound 449]
11 | < 10 | 100 to 1000 | < 10 |  |  |  | COc1ccc(CN(C)C)c(OC)c1-c1cccc2c(C[C@H](NC(=O)c3c(C)cccc3F)C(=O)O)cccc12 [Compound 450]
12 | < 10 | 100 to 1000 | < 10 |  |  |  | COc1ccc(CN(C)C)c(OC)c1-c1cccc2c(C[C@H](NC(=O)c3c(F)cccc3CN3CCC(F)(F)CC3)C(=O)O)cccc12 [Compound 452]
13 | 10 to 100 | > 1000 | 10 to 100 |  |  |  | CN(C)c1ccc2c(c1)c(C(F)(F)F)c(-c1cccc3c(C[C@H](NC(=O)C4(C(F)(F)F)CCN(CC(F)(F)F)CC4)C(=O)O)cccc13)c(=O)n2C [Compound 454]
14 | 10 to 100 | > 1000 | 10 to 100 |  |  |  | Cn1c(=O)c(-c2cccc3c(C[C@H](NC(=O)c4c(F)cccc4CN4CCC(F)(F)C4)C(=O)O)cccc23)c(C(F)(F)F)c2ccccc21 [Compound 456]
15 | 10 to 100 | > 1000 | 10 to 100 |  |  |  | Cc1cccc(F)c1C(=O)N[C@@H](Cc1cccc2c(-c3c(C(F)(F)F)ccn(C)c3=O)cccc12)C(=O)O [Compound 460]
16 |  |  |  | < 10 | 100 to 1000 | < 10 | CN(C)Cc1ccc2c(c1)c(C(F)(F)F)c(-c1cccc3c(C[C@H](NC(=O)c4c(F)cccc4F)C(=O)O)cccc13)c(=O)n2C [Compound 697]
17 |  |  |  | < 10 | 100 to 1000 | 10 to 100 | CN(C)Cc1ccc2c(c1)c(C(F)(F)F)c(-c1cccc3c(C[C@H](NC(=O)c4c(F)cc(C(F)(F)F)cc4F)C(=O)O)cccc13)c(=O)n2C [Compound 699]
